Test results from US12653799B2, “Compositions and methods for treating Alzheimer's disease” (ELEANORE BENNETT CHARITABLE TRUST #2, priority 2021, dated 2026).
“Also recorded” adds a separate entry of the source.

What was measured:
[1] = target: T1, PDK-Akt activation sequence (recombinant PDK-1 and Akt-1) (Homo sapiens, UniProt O15530); assay: In vitro drug screen of PS48-family compounds: PDK-1/Akt-1 activation sequence inhibited by Aβ42 ADDL oligomers (western readout); assay type: biochemical; conditions: for potency relative to PS48: based on Table 1 data; for GSK peptide and Akt T308 phosphorylations, Westerns of in vitro reaction mixture (FIG. 6A): compared to PS48; for fraction of control activity: compound 10 μM
T1 construct: purchased Amsbio
T1 sequence (O15530 1-556): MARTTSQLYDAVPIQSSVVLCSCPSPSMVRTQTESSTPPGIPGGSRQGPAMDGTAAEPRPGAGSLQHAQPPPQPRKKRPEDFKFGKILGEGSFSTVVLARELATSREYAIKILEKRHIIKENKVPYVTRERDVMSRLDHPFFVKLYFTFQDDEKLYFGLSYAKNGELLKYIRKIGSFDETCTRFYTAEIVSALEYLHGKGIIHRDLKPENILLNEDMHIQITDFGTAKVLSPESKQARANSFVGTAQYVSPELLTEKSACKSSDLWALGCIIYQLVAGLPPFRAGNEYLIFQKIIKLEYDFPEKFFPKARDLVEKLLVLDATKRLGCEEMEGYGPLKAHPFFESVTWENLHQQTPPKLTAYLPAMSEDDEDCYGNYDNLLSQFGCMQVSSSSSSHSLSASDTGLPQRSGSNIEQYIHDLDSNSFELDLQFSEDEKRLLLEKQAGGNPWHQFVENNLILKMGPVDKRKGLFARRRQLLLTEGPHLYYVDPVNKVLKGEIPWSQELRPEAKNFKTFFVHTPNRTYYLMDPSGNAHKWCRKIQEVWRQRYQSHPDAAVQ
Experimental: Incubation proceeded for 15 min. GSK-tide (Cell Signaling) was then added and the reaction allowed to continue for 20 min more before termination in sample buffer and fractionation on SDS gel. […] The in vitro results were validated using a cell culture-based assay, as above. […] Compound was added for 12 hrs. The cells were stimulated with insulin before harvest.
Where quantified, experiments were carried out in triplicate unless otherwise stated. Mean, standard errors and significance levels using Student's t-test were computed in Excel or Prism. […] Western signal intensities were all quantified by densitometry. […] Therefore, where both endpoints were evaluated, normalized values were both included in the quantification as indicated.
Drug screening experiments were performed using a focused library of novel compounds that were synthesized using PS48 as the starting scaffold. Two generations were created based on structure-activity relations (SAR) in an attempt to optimize performance.

[2] = system: Akt phosphorylation in Aβ42-expressing SH-SY5Y cells; assay: Akt activation in Aβ42-expressing cells (adenovirus/doxycycline, insulin-stimulated); assay type: cell-based; conditions: SH-SY5Y; for Phospho-Akt levels (T308 and S473 pooled) in cell-based model of Aβ toxicity, verification of analogs: compound 1 μM, insulin 40 nM last 20 minutes
Experimental: Adv TetOn and TRE-Aβ42 viruses were described previously (Magrane et al., 2005). […] Insulin (10 or 40 nM) was added in the last 20-30 min before harvest. […] Cell extracts were prepared in lysis buffer [20 mM Tris-HCl (pH 7.5), 150 mM NaCl, 1 mM EDTA, 1 mM Na3VO4, 1% NP-40, 10% Glycerol, 1 mM Na4P2O7, 1 μg/ml Leupeptin, 1 μg/ml Pepstatin A, 1 μg/ml Aprotinin, 0.1 mM phenylmethylsulfonyl fluoride, and protease inhibitor cocktail (Roche)] and were stored at −80° C. until use.
Whole-cell extracts were used directly for western blot analysis (20˜30 μg). Extracts from cultured cells prepared in lysis buffer, were diluted into Laemmli sample buffer, heated (95° C., 10 min), cleared by centrifugation, separated on SDS-PAGE and transferred to PVDF membrane (Immobilon-P; Millipore). Membranes were blocked in TBS containing 0.3% Tween-20 and 5% (wt/vol) non-fat dry milk. After incubation with primary antibodies (18 hr at 4° C. in buffer containing 5% bovine serum albumin (BSA) and 0.05% NaN3), blots were washed and incubated in horseradish peroxidase (HRP)-conjugated secondary antibodies (1:2000 dilution; Cell Signaling). Signals were detected using ECL reagents and quantified using a Kodak Image Station 4000R.
[…]. […] […]. […] […].

N2a neural cultures = assay: WST assay toxicity in N2a neural cultures; assay type: cell-based; conditions: result not shown
Text: . […]. Examples of in vitro assay performance are shown in FIG. 6A and FIG. 6B for compound 508-1-25 (generation 1) and compound 508-1-68 (generation 2). […] The new “hit” compounds also had no direct or indirect effects on potential downstream off-targets such as mTOR (protein levels and phosphorylation status, results not shown). […]

[3] = system: LTP in rat prefrontal cortical slices; assay: Long term potentiation (LTP) in acute prefrontal cortical slices perfused with Aβ42 oligomers; assay type: cell-based; conditions: Aβ42 ADDLs 0.5 μM; PS48 10 μM, at the 1-hour mark after Aβ42 application
Experimental: FIG. 3A. […] LTP was measured as % baseline excitatory postsynaptic potential (EPSP) amplitudes. […] Washout restored LTP (4).
Minor modifications were made to previous published procedures (Marshall et al., 2017; Molina-Luna et al., 2009). Deeply anesthetized rats (pentobarbital, 50 mg/kg) were decapitated, their brains quickly removed and immersed in cold (5-7° C.), oxygenated (95% O2/5% CO2) artificial cerebrospinal fluid (ACSF) containing: 126 mM NaCl, 3 mM KCl, 1.25 mM NaH2PO4, 1 mM MgSO4, 2 mM CaCl2, 26 mM NaHCO3, 10 mM dextrose. […] Control treatment was DMSO in ACSF (artificial cerebrospinal fluid, 20 μM bicuculline). Extracellular postsynaptic field potentials were recorded using an AxoClamp2B amplifier (Axon instruments) and EX1 differential amplifier (Dagan), and digitized at 10 kHz. Data was acquired using Igor Pro (Wave Metrics) and Neuromatic (neuromatic.thinkrandom.com). The stimulus intensity eliciting 50% of the maximum amplitude (˜32 μA) was used for all measurements before and after LTP induction. Baseline amplitudes were recorded for 20-30 minutes using single field stimuli applied every 30 sec to layer IV-V using concentric bipolar electrodes. Following a stable baseline period, LTP was induced by two sets of high-frequency stimulation (HFS) at 100 Hz, 60 μA (twice stimulus intensity), for 1 sec, 20 sec apart. Extracellular postsynaptic field potentials were measured from layer II-III using glass micropipettes filled with 0.9% NaCl. The amplitude rather than the slope of evoked FPs was used as a measure of the population excitatory synaptic response because in the neocortex the initial slope was contaminated by antidromic stimulation. LTP values were expressed as percentage of mean baseline EPSP±SEM. Paired two-tailed t-tests were used for statistical analysis.
LTP was measured as % baseline excitatory postsynaptic potential (EPSP) amplitudes. […] Washout restored LTP.

SH-SY5Y cells = assay: Cell viability, MTT assay, Aβ42-expressing SH-SY5Y cells; conditions: pretreatment before doxycycline; PS48 10 μM or insulin 100 nM; harvested at 48 hrs
Experimental: FIG. 2A. Cell viability as measured by MTT assay.
SH-SY5Y cells were washed twice in warm Dulbecco's phosphate-buffered saline (DPBS) and incubated in 1 ml DMEM containing 0.5 mg (3-[4,5-dimethylthiazol-2-yl]-2,5-diphenyltetrazolium bromide) (MTT or WST; Molecular Probes, Eugene, OR) for 2-3 h at 37° C. and 5% CO2. The medium was aspirated and the cells were washed twice with pre-warmed DPBS. The formazan salts were dissolved in 1 ml pure ethanol before use. Cells were homogenized by repetitive pipetting and centrifuged for 5 min at 4500 rpm, and the supernatant collected. Absorbance was read against an ethanol blank at 590 nm.

[4] = first generation PS48 analogs, Aβ42 ADDL 10 μM, Aβ 42 alone = 0.62 (.16), control normalized to 1.00

Row | Molecule | potency relative to PS48 [1] | GSK peptide and Akt T308 phosphorylations, Westerns of in vitro reaction mixture (FIG. 6A) [1] | fraction of control activity [1, 4] | Phospho-Akt levels (T308 and S473 pooled) in cell-based model of Aβ toxicity, verification of analogs [2] | also measured
1 | O=C(/C=C(/CCc1ccc(Cl)cc1)c1ccccc1)NCCO [508-1-7] | increase in potency over PS48 | restored activation as well as or better than PS48 | 0.97 (.10) |  | 
2 | O=C(O)CNC(=O)/C=C(/CCc1ccc(Cl)cc1)c1ccccc1 [508-1-25] | increase in potency over PS48 | restored activation as well as or better than PS48 | 0.99 (.07) | correcting the inhibition of Akt phosphorylation | Phospho-Akt levels (T308 and S473 pooled) in cell-based model of Aβ toxicity, verification of analogs ([2]; listed as 501-1-25): active; LD50 (N2a neural cultures): 350 µM
3 | O=C(O)c1cn(Cc2ccc(OC(F)(F)F)cc2)c2ccccc12 [508-1-31] | increase in potency over PS48 |  | 0.95 (.11) |  | 
4 | COC(=O)CNC(=O)/C=C(\CCc1ccc(Cl)cc1)c1ccccc1 [508-1-68] | increase in potency over PS48 | restored activation as well as or better than PS48 |  | correcting the inhibition of Akt phosphorylation; also recorded: active | fraction of control activity ([1]; second generation PS48 analogs, Aβ 42 alone = 0.72 (.05)): 1.02 (.06)
5 | O=C(O)/C=C(\CCc1ccc(Cl)cc1)c1ccccc1 [PS47, (E)-5-(4-chlorophenyl)-3-phenylpent-2-enoic acid] |  |  |  |  | LTP (% baseline EPSP amplitude) inhibited by Aβ42 oligomers [3]: no effect
6 | insulin: Human insulin, recombinant |  |  |  |  | Akt activation (pT308) in β-amyloid-expressing cells ([2]; PS48 1 μM or insulin 100 nM added 2 hrs before doxycycline, insulin 40 nM 20 min prior to harvest): restored basal Akt activation levels; cell viability (MTT) of amyloid-bearing cells (SH-SY5Y cells): reverted cells to basal condition or better
